Holding throughout (assay type): physicochemical
Series [1] can be described thus: NIR luminescence decay lifetime monitored at 980 nm. Conditions: for Decay lifetime (τobs): bovine albumin (BSA), air-saturated, 0.1% DMSO. The method, then:
Emission, excitation spectra and lifetime were measured on an Edinburgh Analytical Instruments FLS980 lifetime and steady state spectrometer equipped with a 450 W Xe lamp, a 60 W microsecond flash lamp, PMT R928 for the visible emission spectrum, HAMAMATSU R5509-73 PMT with a C9940-02 cooler for the NIR emission spectrum and luminescence lifetime. Excitation and emission spectra were corrected for instrumental functions (including the correction for detector, gratings etc.). All luminescence decays were exponentially tail-fitted by monoexponential functions without deconvolution for the negligible instrumental reference function in the NIR region.

Series [2] can be described thus: NIR luminescence quantum yield, comparative method vs YbTPP(LOEt). The method, then: Quantum yields in solution were determined using a comparative method and the equation: Φs/Φr = (Gs/Gr) × (ηs^2/ηr^2), where the subscripts r and s denote the reference and sample respectively, Φ is the quantum yield, G is the slope from the plot of integrated emission intensity vs. absorbance, and η is the refractive index of the solvent.[79] The reference was YbTPP(LOEt) in CH2Cl2 ([…]).[53] Generally, YbTPP(LOEt) and the solution of Yb^3+ complex with 4 different concentrations were firstly prepared in the corresponding solvents. The absorbance of all the solutions at 410 nm was recorded on an Agilent 8453 UV-vis spectrometer equipped with an Agilent 89090A thermostat (±0.1 °C) and NIR emissions were recorded on an Edinburgh Analytical Instruments FLS980 lifetime and steady state spectrometer with the excitation wavelength at 410 nm under identical conditions. According to the ratio of the slope GYb – x/Gr (x = 1–5, 2c–5c), the relative quantum yield of Yb^3+ complexes could be obtained according to the equation described above. The absorbance values of all the samples and references are below 0.1 and the absorbance values undergo background correction by subtracting the average over a range from 800 to 820 nm. The integrated emission intensity integrated from 880 nm to 1150 nm was obtained by subtracting the blank (integrated emission intensity with only the pure solvent under identical conditions). The estimated error for the quantum yield measurements is 15%. For the quantum yield measured in degassed solution, solutions of Yb^3+ complexes with 4 different concentrations were degassed via 5 freeze–pump–thaw cycles. Then the measurement and calculation were the same as above.

Series [3] can be described thus: n-octanol/water partition coefficient (log P). The method, then: Equal volumes (2000 mL) of n-octanol and water were thoroughly mixed using an oscillator and separated after 24 h. Yb^3+ complex (0.1 mg each) was then dissolved in 40 mL of the separated n-octanol and the solution and 40 mL of water (previously separated from the mixture) was added. The new water–octanol system was allowed to equilibrate for additional 24 h. After separation, both fractions were analyzed by UV-vis spectra. The log P values were calculated with the following equation:[80]1 log P = log(Coctanol/Cwater)where Coctanol and Cwater refer to the concentrations of Yb^3+ complexes in n-octanol and water, respectively.

A short description of series [4]: Stability in solution and aqueous media (absorption / NIR luminescence, dark and 405 nm laser). From the text:
We also measured the ^2D NMR of Yb-4 in CH3OH as an example (Fig. S75 ^†) and only one single peak was observed.
Fig. 2 (a) Spectroscopic evaluation of Yb-4 photostability in water, PBS and FBS with 0.1% DMSO under irradiation of a 405 nm laser (0.2 W cm^–2) (inset: dark stability); (b) spectroscopic evaluation of Yb-4 and Yb-4c stabilities in pH = 5 PBS with 0.1% DMSO under irradiation of a 405 nm laser (0.2 W cm^–2). Emission intensity values were referenced to the emission intensity of Yb^3+ (980 nm) at 0 h.

Setting [5] is: DMSO, air-equil., monitored at 980 nm.
[6] abbreviates: DMSO, degassed, monitored at 980 nm.
[7] abbreviates: H2O with 0.1% DMSO, air-equil., monitored at 980 nm.
[8] abbreviates: H2O with 0.1% DMSO, degassed, monitored at 980 nm.

Here are results for six compounds from PMC5939605, “Highly luminescent, biocompatible ytterbium(III) complexes as near-infrared fluorophores for living cell imaging” (Chemical Science, 2018).

SMILES strings stand for the structures. Several values for one entry are separate records, joined by “and”; a condition that tells them apart may be missing. Equal entries are not always repeated.

On to `OC[C@H]1O[C@@H](Oc2ccc(C3=C4N=C(C(F)=C4F)C(c4ccc(O[C@@H]5O[C@H](CO)[C@@H](O)[C@H](O)[C@H]5O)cc4)=c4c(F)c(F)c5[n]4[Yb+][n]4c3c(F)c(F)c4C(c3ccc(O[C@@H]4O[C@H](CO)[C@@H](O)[C@H](O)[C@H]4O)cc3)=C3N=C(C(F)=C3F)C=5c3ccc(O[C@@H]4O[C@H](CO)[C@@H](O)[C@H](O)[C@H]4O)cc3)cc2)[C@H](O)[C@@H](O)[C@@H]1O.[2H]C([2H])([2H])O[P](=O)(OC([2H])([2H])[2H])[Co-]([CH]1C=CC=C1)([P](=O)(OC([2H])([2H])[2H])OC([2H])([2H])[2H])[P](=O)(OC([2H])([2H])[2H])OC([2H])([2H])[2H]` [Yb-1], for which the τobs in series [1] (setting [5]) is listed as 161(5) μs; in series [1] (setting [6]), 165(4) μs; in series [1] (setting [7]), 95(2) μs; in series [1] (setting [8]), 96(3) μs. Also, the “Decay lifetime (τobs)” value in series [1] (monitored at 980 nm) was 100(3). For the same compound, the ΦYb in series [2] (DMSO, air-equil.) is listed as 16(2) %; in series [2] (DMSO, degassed) it was 16(2) %; in series [2] (H2O with 0.1% DMSO, air-equil.) it was 7.6(0.4) %; in series [2] (H2O with 0.1% DMSO, degassed) it was 7.7(0.5) %. In addition, the “log Po/w” value in series [3] is listed as 1.32.
`O=C(O)c1ccc(C2=C3C=CC(=N3)C(c3c(F)c(F)c(F)c(F)c3F)=c3ccc4[n]3[Yb+][n]3c2ccc3C(c2c(F)c(F)c(F)c(F)c2F)=C2C=CC(=N2)C=4c2c(F)c(F)c(F)c(F)c2F)cc1.[2H]C([2H])([2H])O[P](=O)(OC([2H])([2H])[2H])[Co-]([CH]1C=CC=C1)([P](=O)(OC([2H])([2H])[2H])OC([2H])([2H])[2H])[P](=O)(OC([2H])([2H])[2H])OC([2H])([2H])[2H]` [Yb-2c]: the τobs is 52(2) μs in series [1] (setting [5]), 52(2) μs in series [1] (setting [6]), 38(1) μs in series [1] (setting [7]) and 41(2) μs in series [1] (setting [8]). Moreover, the ΦYb was 6.2(0.2) % in series [2] (DMSO, air-equil.); 6.0(0.2) % in series [2] (DMSO, degassed); 2.5(0.2) % in series [2] (H2O with 0.1% DMSO, air-equil.); 2.6(0.2) % in series [2] (H2O with 0.1% DMSO, degassed). For the same compound, the “log Po/w” value in series [3] stood at 1.26.
For the compound `FC1=C(F)C2=C(c3ccc(C[P+](c4ccccc4)(c4ccccc4)c4ccccc4)cc3)c3c(F)c(F)c4[n]3[Yb+][n]3c(c(F)c(F)c3=C(c3ccc(C[P+](c5ccccc5)(c5ccccc5)c5ccccc5)cc3)C3=NC(=C4c4ccc(C[P+](c5ccccc5)(c5ccccc5)c5ccccc5)cc4)C(F)=C3F)=C(c3ccc(C[P+](c4ccccc4)(c4ccccc4)c4ccccc4)cc3)C1=N2.[2H]C([2H])([2H])O[P](=O)(OC([2H])([2H])[2H])[Co-]([CH]1C=CC=C1)([P](=O)(OC([2H])([2H])[2H])OC([2H])([2H])[2H])[P](=O)(OC([2H])([2H])[2H])OC([2H])([2H])[2H].[Cl-].[Cl-].[Cl-].[Cl-]` [Yb-3], the τobs in series [1] (setting [5]) is reported as 205(2) μs; in series [1] (setting [6]), 213(5) μs; in series [1] (setting [7]) it was 56(2) μs; in series [1] (setting [8]), 58(3) μs. Further, the “Decay lifetime (τobs)” value in series [1] (monitored at 980 nm) is 90(2). In addition, the ΦYb in series [2] (DMSO, air-equil.) is 20(1) %; in series [2] (DMSO, degassed), 21(2) %; in series [2] (H2O with 0.1% DMSO, air-equil.) it was 5.1(0.2) %; in series [2] (H2O with 0.1% DMSO, degassed), 5.2(0.3) %. In addition, the “log Po/w” value in series [3] was found to be 0.56.
`C1=CC2=C(c3ccc(C[P+](c4ccccc4)(c4ccccc4)c4ccccc4)cc3)c3ccc4[n]3[Yb+][n]3c(ccc3=C(c3ccc(C[P+](c5ccccc5)(c5ccccc5)c5ccccc5)cc3)C3=NC(=C4c4ccc(C[P+](c5ccccc5)(c5ccccc5)c5ccccc5)cc4)C=C3)=C(c3ccc(C[P+](c4ccccc4)(c4ccccc4)c4ccccc4)cc3)C1=N2.[2H]C([2H])([2H])O[P](=O)(OC([2H])([2H])[2H])[Co-]([CH]1C=CC=C1)([P](=O)(OC([2H])([2H])[2H])OC([2H])([2H])[2H])[P](=O)(OC([2H])([2H])[2H])OC([2H])([2H])[2H].[Cl-].[Cl-].[Cl-].[Cl-]` [Yb-3c]: the τobs was 49(1) μs in series [1] (setting [5]), 51(2) μs in series [1] (setting [6]), 25(1) μs in series [1] (setting [7]) and 26(2) μs in series [1] (setting [8]). Moreover, the ΦYb in series [2] (DMSO, air-equil.) was 5.6(0.2) %; in series [2] (DMSO, degassed) it was 5.6(0.2) %; in series [2] (H2O with 0.1% DMSO, air-equil.), 1.4(0.1) %; in series [2] (H2O with 0.1% DMSO, degassed), 1.4(0.1) %. Further, in series [3], the “log Po/w” value is 0.24.
Regarding `C[N+]1(C)CC2(F)C3=NC(=C(c4c(F)c(F)c(F)c(F)c4F)c4c(F)c(F)c5[n]4[Yb+][n]4c(c(F)c(F)c4=C3c3c(F)c(F)c(F)c(F)c3F)=C(c3c(F)c(F)c(F)c(F)c3F)C3=NC(=C5c4c(F)c(F)c(F)c(F)c4F)C(F)=C3F)C2(F)C1.[2H]C([2H])([2H])O[P](=O)(OC([2H])([2H])[2H])[Co-]([CH]1C=CC=C1)([P](=O)(OC([2H])([2H])[2H])OC([2H])([2H])[2H])[P](=O)(OC([2H])([2H])[2H])OC([2H])([2H])[2H].[I-]` (stereo not drawn) [Yb-4], the τobs in series [1] (setting [5]) is 173(4) μs; in series [1] (setting [6]) it was 187(8) μs; in series [1] (setting [7]), 140 μs and 140(5) μs; in series [1] (setting [8]) it was 142(5) μs; in series [1] (ethanol, air-equil., λex = 410 nm, 980 nm) it was 86(4) μs; in series [1] (ethanol, degassed, λex = 410 nm, 980 nm) it was 99(2) μs. The τobs in series [1] (glycerol, air-equil., λex = 410 nm, 980 nm) is recorded as 192(4) μs; in series [1] (glycerol, degassed, λex = 410 nm, 980 nm), 195(5) μs; in series [1] (i-propanol, air-equil., λex = 410 nm, 980 nm) it was 110(5) μs; in series [1] (i-propanol, degassed, λex = 410 nm, 980 nm), 120(3) μs; in series [1] (methanol, air-equil., λex = 410 nm, 980 nm), 68(2) μs; in series [1] (methanol, degassed, λex = 410 nm, 980 nm), 74(3) μs. The τobs is listed as 117(4) μs in series [1] (t-butanol, air-equil., λex = 410 nm, 980 nm) and 127(3) μs in series [1] (t-butanol, degassed, λex = 410 nm, 980 nm). Besides, in series [1] (monitored at 980 nm), the “Decay lifetime (τobs)” value is listed as 145(3). For the same compound, the ΦYb in series [2] (DMSO, air-equil.) was 17(2) %; in series [2] (DMSO, degassed), 18(2) %; in series [2] (H2O with 0.1% DMSO, air-equil.) it was 10% and 10(1) %; in series [2] (H2O with 0.1% DMSO, degassed) it was 10(1) %. Also, the “ΦYb and τobs in H2O relative to Yb-4c” value in series [2] (H2O, air-saturated) turned out to be 4 fold. Moreover, the “log Po/w” value in series [3] was found to be 1.34. Moreover, the photostability result in series [4] (pH = 5 PBS with 0.1% DMSO, 405 nm laser 0.2 W cm^–2) is “photostable over 4 h”. Also, the “NIR luminescence under continuous irradiation” value in series [4] (water, PBS and FBS with 0.1% DMSO, 405 nm laser, 0.2 W cm^–2) is reported as “did not significantly change”. Moreover, the dark stability result in series [4] (water, PBS and FBS with 0.1% DMSO, NIR luminescence) was “high dark stability over 48 h”.
On to `C[N+]1(C)CC2C3=NC(=C(c4c(F)c(F)c(F)c(F)c4F)c4ccc5[n]4[Yb+][n]4c(ccc4=C3c3c(F)c(F)c(F)c(F)c3F)=C(c3c(F)c(F)c(F)c(F)c3F)C3=NC(=C5c4c(F)c(F)c(F)c(F)c4F)C=C3)C2C1.[2H]C([2H])([2H])O[P](=O)(OC([2H])([2H])[2H])[Co-]([CH]1C=CC=C1)([P](=O)(OC([2H])([2H])[2H])OC([2H])([2H])[2H])[P](=O)(OC([2H])([2H])[2H])OC([2H])([2H])[2H].[I-]` (stereo not drawn) [Yb-4c], for which the τobs in series [1] (setting [5]) is 49(2) μs; in series [1] (setting [6]) it was 50(2) μs; in series [1] (setting [7]) it was 35 μs and 35(1) μs; in series [1] (setting [8]), 38(2) μs. For the same compound, the ΦYb was 5.4(0.2) % in series [2] (DMSO, air-equil.); 5.5(0.2) % in series [2] (DMSO, degassed); 2.3% and 2.3(0.2) % in series [2] (H2O with 0.1% DMSO, air-equil.); 2.4(0.1) % in series [2] (H2O with 0.1% DMSO, degassed). For the same compound, in series [3], the “log Po/w” value is 1.33. Also, the photobleaching in series [4] (pH = 5 PBS with 0.1% DMSO, 405 nm laser 0.2 W cm^–2, 4 h) turned out to be 55%.
